{
  "source": "patent US7897592B2",
  "about": "“HIV integrase inhibitors” (priority 2005, dated 2011)",
  "target": "T1, HIV-integrase (recombinant integrase) (Human immunodeficiency virus type 1 group M subtype B, UniProt P12497)",
  "T1 construct": "Recombinant integrase (0.26 ng) was incubated with the beads",
  "assay": "HIV-Integrase Inhibition Activity (SPA bead strand-transfer assay)",
  "format": "biochemical",
  "details": "biotin labeled substrate DNA on SPA beads, P33 labeled target DNA, read-out: Activity (IC50 against HIV-integrase)",
  "procedure": "HIV-Integrase Inhibition Activity. To evaluate in-vitro activity against HIV-integrase, 5 pmole of biotin labeled substrate DNA was bound to 100 μg of Streptavidin coated PVT SPA beads (Amersham Pharmacia Biotech). Recombinant integrase (0.26 ng) was incubated with the beads for 90 min at 37° C. Unbound enzyme was removed by washing the complex followed by addition of inhibitors and 0.1 fmol of P33 labeled target DNA. The reaction was stopped by adding EDTA to a final concentration of 10 mM. Samples were counted in TopCountNXT (Packard) and the CPM was used as a measure of integration. The reaction condition was as described in A. Engelman and R. Craigie, J. Virol. 69, 5908-5911 (1995). The sequences of substrate and target DNA were described in Nucleic Acid Research 22, 1121-1122 (1994). Activity equal to A refers to a compound having IC50=0.002 to 0.10 μM while B and C denote compounds having IC50=0.1 to 1.0 μM and IC50≧1.0 μM respectively.",
  "data": [
    {"smiles": "Cc1cc(CNC(=O)c2nc3n(c(=O)c2O)CCCS(=O)(=O)C32CCOCC2)ccc1F", "note": "[Example 27, Spiro[4H-pyran-4,10′(4′H)-[6H]pyrimido[2,1-c][1,4]thiazepine]-2′-carboxamide, N-[(4-fluoro-3-methylphenyl)methyl]-2,3,5,6,7′,8′-hexahydro-3′-hydroxy-4′-oxo-, 9′,9′-dioxide]", "values": [
      {"measurement": "IC50", "value": "2 to 100", "unit": "nM"}
    ]},
    {"smiles": "O=C(NCc1ccc(F)cc1-n1cncn1)c1nc2n(c(=O)c1O)CCCS(=O)(=O)C21CCOCC1", "note": "[Example 28, Spiro[4H-pyran-4,10′(4′H)-[6H]pyrimido[2,1-c][1,4]thiazepine]-2′-carboxamide, N-[[4-fluoro-2-(1H-1,2,4-triazol-1-yl)phenyl]methyl]-2,3,5,6,7′,8′-hexahydro-3′-hydroxy-4′-oxo-, 9′,9′-dioxide]", "values": [
      {"measurement": "IC50", "value": "2 to 100", "unit": "nM"}
    ]},
    {"smiles": "Cc1ncnn1-c1cc(F)ccc1CNC(=O)c1nc2n(c(=O)c1O)CCCS(=O)(=O)C21CCOCC1", "note": "[Example 29, Spiro[4H-pyran-4,10′(4′H)-[6H]pyrimido[2,1-c][1,4]thiazepine]-2′-carboxamide, N-[[4-fluoro-2-(5-methyl-1H-1,2,4-triazol-1-yl)phenyl]methyl]-2,3,5,6,7′,8′-hexahydro-3′-hydroxy-4′-oxo-, 9′,9′-dioxide]", "values": [
      {"measurement": "IC50", "value": "2 to 100", "unit": "nM"}
    ]}
  ]
}
